Where two headings read alike, the source gives them in different places.
What was measured:
[1] = system: eyes of New Zealand white rabbits; conditions: for PVD observations by OCT: OD
Description: Five female New Zealand White rabbits were given a single administration of urea solution IVT into both eyes (OU) at doses of 2.5, 5, 10, 25 and 50 mg/eye.
Prior to placement in the study, each animal underwent an ophthalmic examination (slit-lamp biomicroscopy and indirect ophthalmoscopy). Ocular findings were scored according to a modified McDonald-Shadduck Scoring System. The acceptance criteria for placement on study were scores of “0” for all variables.
All procedures were performed using sterile technique. Animals were anesthetized for IVT injections, OCT, and B-Scan imaging with an IM injection of ketamine hydrochloride (50 mg/kg for imaging, 15-30 mg/kg for IVT injections) and xylazine (5 mg/kg). For one animal, anesthesia was prolonged via inhaled isoflurane (1-1.5% in 1.5-2 L/min oxygen) during baseline imaging due to extended duration of imaging. For another animal, inhaled isoflurane (2% in 1.5 L/min oxygen) was used to anesthetize the animal for IVT injections, because the animal had undergone baseline imaging (which included ketamine/xylazine anesthesia) earlier in the same day. One to two drops of topical proparacaine hydrochloride anesthetic (0.5%) were applied to the animal's eyes prior to the surgical procedure.
Prior to IVT injection, eyes were cleaned with Betadine and then rinsed with BSS. Using a ⅝ inch needle, injections were made 3 to 4 mm away from the limbus. Once the needle had been inserted, urea solution or BSS was injected. The needle was removed and the eye rinsed with BSS. Animals were recovered immediately after dosing and monitored during recovery. Triple antibiotic ophthalmic ointment was administered to the eyes during recovery.
Animals were euthanized on Day 35 (±4) and their eyes (whole globe) were collected and submitted for histopathological analysis.
Ophthalmic examinations (slit-lamp biomicroscopy and indirect ophthalmoscopy) were performed on Days −3 or 0 (baseline prior to test/control article administration), 1, 4, 7 or 8, 14, 21, and 35. Day 4 examinations were performed at the beginning of the workday. Day 21 examinations were performed only on Groups 1, 2, and 5. Ocular findings were scored according to a modified McDonald-Shadduck Scoring System. […] Observations included assessment of the development and time course of PVD.
Images of the fundus were taken on Days −3 or 0 (baseline prior to drug or BSS administration), 1, 4, 7 or 8, 14, 21, and 35. Day 4 images were taken at the beginning of the workday. Day 21 images were taken only of Groups 1, 2, and 5. Animals were not anesthetized for imaging.
OCT was performed on Days −3 or 0 (baseline prior to test/control article administration), 1, 4, 7 or 8, 14, 21, and 35. Day 4 images were taken at the beginning of the workday. Day 21 images were taken only of Groups 1, 2, and 5. Animals were anesthetized as described above. A total of 8 images per rabbit per day was acquired.
B-Scan ultrasound images were taken on Days −3 or 0 (baseline prior to test/control article administration) and on Day 35.

[2] = system: eyes of New Zealand white rabbits
Excerpt: Female New Zealand white rabbits were obtained from Western Oregon Rabbit Co. (Philomath, Oreg.) and were housed and cared for in compliance with the regulations of the USDA Animal Welfare Act and under the review and approval of the institution's Animal Care and Use Committee.
Prior to placement on study, each animal underwent an ophthalmic examination (slit-lamp biomicroscopy and indirect ophthalmoscopy). […] The acceptance criteria for placement on study were scores of “0” for all variables.
Six female New Zealand White rabbits (two per subgroup) were administered urea-encapsulated liposome constructs (58 mol % DOPC, 42 mol % cholesterol) intravitreally (IVT) as a single dose into both eyes (OU). Animals were anesthetized with an intramuscular (IM) injection of ketamine hydrochloride (30 mg/kg), xylazine (5 mg/kg), and acepromazine (3 mg/kg) followed by isoflurane by inhalation (1-2.5%) in oxygen (1 L/min). One to two drops of topical proparacaine hydrochloride anesthetic (0.5%) were applied to the animal's eyes prior to the surgical procedure. Animals were kept anesthetized with their heads stabilized for three hours post dose, with one eye facing up and the other eye facing down.
After three hours, a clinical ophthalmic examination was performed, animals were euthanized. Vitreous humor (VH) was collected as 3 fractions. Pupils were dilated using one drop each of 10% phenylephrine and 1% tropicamide. Two 18G needles were inserted into the eye at the 3 o'clock and 9 o'clock position and advanced into the VH, one with the bevel pointed up towards the lens and the other with the bevel pointed down toward the retina. Three hundred μL of VH were drawn up through each needle, after which each needle was removed from the eye. The eye was then harvested and enucleated. Following enucleation, the remaining VH was collected as the third fraction. Samples from each eye in each animal remained separate and were not pooled. The weight of ocular tissues was recorded. Individual VH fractions were weighed separately. VH fractions were centrifuged at 16,100×g at room temperature for 20-30 minutes. The supernatant was separated. Pellets containing liposome constructs and supernatant were snap frozen separately on dry ice and stored at −60 to −80° C. Retina was also collected from these animals, snap frozen on dry ice, and stored at −60 to −80° C.
Two additional animals (one per subgroup) were administered a single or double dose of free urea solution IVT into the right eye (OD) and balanced salt solution (BSS) into the left eye (OS). Animals were anesthetized with an IM injection of ketamine hydrochloride (30 mg/kg) and xylazine (5 mg/kg). One to two drops of topical proparacaine hydrochloride anesthetic (0.5%) were applied to the animal's eyes prior to the surgical procedure.
Clinical ophthalmic examinations, fundus photography, and optical coherence tomography (OCT) were performed in these animals on Days 0-3, 4 (AM and PM), 8 (±1), 14, 21, and 28 post dose. For OCT, pupils were dilated with one drop each of 10% phenylephrine and 1% tropicamide approximately 10-15 minutes prior to imaging. Images were taken using the Spectralis® instrumentation (Heidelberg Engineering, Inc., Heidelberg, Germany).

NC(N)=O [urea, Urea]
PVD in clinical ophthalmic examinations ([1]; 2.5-50 mg/eye IVT, up to Day 35): No evidence of PVD | PVD observations by OCT ([1]; Group 1, 5 mg urea IVT): Partial PVD on Day 35 | PVD observations by OCT ([1]; Group 2, 10 mg urea IVT): Partial PVD on Day 7 and beyond | PVD in B-scan images, Day 35 ([1]; Group 4, 50 mg/eye): evidence of PVD in the right eye (OD) | PVD observations by OCT ([1]; Group 5, 2.5 mg urea IVT): Possible partial PVD on Day 4, none observed | PVD in B-scan images, Day 35 ([1]; other animals (2.5, 5, 10, 25 mg/eye)): no PVD could be detected | vitreous clouding (fundus photography) ([2]; 96 and 192 mg/eye IVT, OD): clouding of the OD vitreous from Day 0 through Day 3 | toxicity from Day 3 onward (fundus imaging) ([2]; 96 and 192 mg/eye IVT, OD, at the site of delivery, peaked Days 3-7): severe retinal folding and vascular hemorrhage | retinal detachment (OCT) ([2]; 96 and 192 mg/eye IVT, peaked between Days 3 and 7, then subsided): retina had detached mostly at the ganglion cell layer | days on which OCT imaging showed PVD ([2]; Subgroup 2a, 96 mg/eye IVT, OD): Day 3 | days on which OCT imaging showed PVD ([2]; Subgroup 2b, 192 mg/eye IVT, OD): Days 4 (AM and PM), 7, and 14 | time to development of PVD ([2]; free urea 96 mg/eye (single dose) or 192 mg/eye (double dose) IVT, OD): ≤ 2 days | ocular irritation and swelling after IVT injection ([2]; immediately after IVT injection, resolved over the next few days in surviving animals): ocular irritation and swelling were observed | adverse effects on body weights and general health ([2]; single IVT dosing, liposome constructs 56-96 mg total urea/eye, free urea 96 or 192 mg/eye): No adverse effects on body weights and no severe adverse effects on general health

Reference: US11052158B2, “Delivery of urea to cells of the macula and retina using liposome constructs” (priority 2016, dated 2021)
